This is an account of results in patent US7728012B2, “Carboxamide compounds and their use as calpain inhibitors” (Abbott GmbH & Co. KG, priority 2006, dated 2010).

For test [1], the target named is T1, calpain-I isolated from human erythrocytes (Homo sapiens, UniProt P07384).
T1 construct: calpain-I—isolated from human erythrocytes; purchased Calbiochem 208713; host or cells: human erythrocytes (tissue isolate)
T1 sequence (P07384 1-714): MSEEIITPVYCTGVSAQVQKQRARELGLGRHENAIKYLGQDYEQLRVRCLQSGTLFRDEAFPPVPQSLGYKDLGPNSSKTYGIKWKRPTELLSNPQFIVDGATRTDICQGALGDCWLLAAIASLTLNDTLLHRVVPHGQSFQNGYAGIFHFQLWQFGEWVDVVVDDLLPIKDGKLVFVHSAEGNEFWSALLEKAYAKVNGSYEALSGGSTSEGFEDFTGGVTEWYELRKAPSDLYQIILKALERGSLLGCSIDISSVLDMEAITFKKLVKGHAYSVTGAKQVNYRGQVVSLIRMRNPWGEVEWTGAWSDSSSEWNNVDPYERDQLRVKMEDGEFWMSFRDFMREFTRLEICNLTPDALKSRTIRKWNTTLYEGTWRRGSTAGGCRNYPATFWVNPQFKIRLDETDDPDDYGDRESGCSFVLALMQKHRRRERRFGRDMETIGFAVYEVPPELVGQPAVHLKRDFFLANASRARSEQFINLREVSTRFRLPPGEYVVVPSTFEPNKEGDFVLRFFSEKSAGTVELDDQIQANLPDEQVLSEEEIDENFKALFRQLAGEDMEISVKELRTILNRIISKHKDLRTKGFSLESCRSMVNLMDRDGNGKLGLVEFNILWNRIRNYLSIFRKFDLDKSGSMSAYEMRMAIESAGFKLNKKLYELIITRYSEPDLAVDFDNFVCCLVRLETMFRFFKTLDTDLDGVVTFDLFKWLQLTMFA
T1 sequence (P04632 1-268 partner): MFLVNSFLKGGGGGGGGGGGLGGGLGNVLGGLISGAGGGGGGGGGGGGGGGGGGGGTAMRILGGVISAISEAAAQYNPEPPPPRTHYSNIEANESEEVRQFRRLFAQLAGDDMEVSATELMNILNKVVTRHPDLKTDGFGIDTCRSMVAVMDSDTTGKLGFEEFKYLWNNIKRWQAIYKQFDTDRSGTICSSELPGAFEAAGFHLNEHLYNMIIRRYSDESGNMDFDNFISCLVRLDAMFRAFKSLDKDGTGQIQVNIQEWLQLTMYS
Nature of the test: Calpain I kinetic fluorescence enzyme inhibition assay. The class given is biochemical. Conditions: apparent Ki from IC50 by Cheng-Prussoff; average of 2 to 4 dose-effect plots. On the procedure: (§1) The following solutions and buffers were employed: • HBS (for 40 ml): 800 μl M HEPES; 2.16 ml 100 mM KCl; 4.8 ml 1M NaCl; 3.59 ml 5% glucose; 60 μl μM MgSO4; 400 μl 100 mM Na pyruvate, 28.19 ml water; pH 7.2-7.5. • lysis buffer (for 20 ml): 400 μl M Tris pH 8.2; 2.74 ml 1M NaCl; 520 μl 0.5M EDTA; 2 ml 10% triton X-100; 0.8 ml (=1:25) CompletePlus (1 tablet/2 ml H2O); 200 μl 100 mM Pefabloc; 13.34 ml water, pH 8.2. • TBST (10×) (for 1 l): 100 mM Tris (12.1 g); 1.5M NaCl (87 g); 1% Tween 20 (10 g), adjusted to pH 8. I Enzyme Inhibition In Vitro: • Testing for blockade of the corresponding enzymic activities was carried out by means of kinetic fluorescence assays (excitation 390 nm, emission 460 nm). • Apparent Ki values were calculated from the experimentally determined IC50 values by the Cheng-Prussoff relation assuming a reversible competitive enzyme inhibition. The Km values of the substrates used under the assay conditions indicated above were: 90 μM (Z-Phe-Arg-AMC, cathepsin B), 10 μM (Z-Gly-Pro-Arg-AMC, cathepsin K), 2 μM (Z-Phe-Arg-AMC, cathepsin L), and 30 μM (Z-Val-Val-Arg-AMC, cathepsin S). • The indicated Ki values are averages of the inhibition constants calculated on the basis of 2 to 4 independent dose-effect plots.
(§2) The following assays were used: • 1. Calpain I: • 20 nM calpain-I—isolated from human erythrocytes (Calbiochem #208713), 100 μM Suc-Leu-Tyr-AMC (Bachem #1-1355) as substrate in buffer with 62 mM imidazole, 0.3 mM CaCl2, 0.10% CHAPS, 0.05% BSA, 1 mM DTT at pH 7.3 and room temperature. • 2. Cathepsin B: • 0.25 nM cathepsin B—isolated from human liver (Calbiochem #219362), 100 μM Z-Phe-Arg-AMC (Bachem #I-1160) as substrate 50 mM MES, 2 mM EDTA, 0.05% Brij 35, 2.5 mM L-cysteine, pH 6.0, room temperature. • 3. Cathepsin K: • 3 nM cathepsin K—activated from recombinant human procathepsin K from E. coli (Calbiochem #342001), 10 μM Z-Gly-Pro-Arg-AMC (Biomol #P-142) as substrate in 50 mM MES, 2 mM EDTA, 0.05% Brij 35, 2.5 mM L-cysteine, pH 6.0, room temperature. • 4. Cathepsin L: • 1 nM cathepsin L—isolated from human liver (Calbiochem #219402), 2 μM Z-Phe-Arg-AMC (Bachem #1-1160) as substrate in 50 mM MES, 2 mM EDTA, 0.05% Brij 35, 2.5 mM L-cysteine, pH 6.0, room temperature. • 5. Cathepsin S: • 0.5 nM recombinant human cathepsin S from E. coli (Calbiochem #219343), 20 μM Z-Val-Val-Arg-AMC (Bachem #1-1540) as substrate in 50 mM MES, 2 mM EDTA, 0.05% Brij 35, 2.5 mM L-cysteine, pH 6.0, room temperature. • The results of the in vitro determination are indicated in Table 1. The following abbreviations are used in Table 1: • The “Calpain activity” column, ++ stands for a calpain Ki (Ki(calpain)) of ≦40 nM and + means: 40 nM<Ki(Calpain)≦100 nM. • The “Sel. cat. B” column indicates the Ki(cathepsin B)/Ki(calpain) ratio. In this connection, ++ means a Ki(cathepsin B)/Ki(calpain) ratio of ≧30 and + means 10≦Ki(cathepsin B)/Ki(calpain)<30. • The “Sel. cat. K” column indicates the Ki(cathepsin K)/Ki(calpain) ratio. In this connection, ++ means a Ki(cathepsin K)/Ki(calpain) ratio of ≧30 and + means 10≦Ki(cathepsin K)/Ki(calpain)<30. • The “Sel. cat. L” column indicates the Ki(cathepsin L)/Ki(calpain) ratio. In this connection, ++ means a Ki(cathepsin L)/Ki(calpain) ratio of ≧50 and + means 30≦Ki(cathepsin L)/Ki(calpain)<50. • The “Sel. cat. S” column indicates the Ki(cathepsin S)/Ki(calpain) ratio. In this connection, ++ means a Ki(cathepsin S)/Ki(calpain) ratio of ≧100 and + means 50≦Ki(cathepsin S)/Ki(calpain)<100.

Test [2] concerns the target T2, recombinant human cathepsin S (Homo sapiens, UniProt P25774).
T2 construct: purchased Calbiochem 219343; host or cells: E. coli
Nature of the test: Cathepsin S kinetic fluorescence enzyme inhibition assay. Conditions: selectivity ratio versus calpain I. In kind it is biochemical. On the procedure:
as §1, §2

T2 sequence (P25774 115-331): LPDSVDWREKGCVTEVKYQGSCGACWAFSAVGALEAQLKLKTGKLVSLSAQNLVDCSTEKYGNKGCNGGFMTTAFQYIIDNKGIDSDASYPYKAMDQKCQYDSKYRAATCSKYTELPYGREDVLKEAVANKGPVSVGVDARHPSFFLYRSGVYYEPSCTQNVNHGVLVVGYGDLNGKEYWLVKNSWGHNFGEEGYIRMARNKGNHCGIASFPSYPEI

For `CCCCC(NC(=O)c1cccnc1-n1ccc(-c2ccc(CN(CC)CC)cc2)n1)C(=O)C(N)=O` (centres unmarked) [Example 44, N-{1-[Amino(oxo)acetyl]pentyl}-2-(3-{4-[(diethylamino)methyl]phenyl}-1H-pyrazol-1-yl)nicotinamide], the Ki in test [1] is at most 40 nM. The “Sel cat. S (Ki(cathepsin S)/Ki(calpain) ratio)” value in test [2] is recorded as “+ (50≦Ki(cathepsin S)/Ki(calpain)<100)”.

For the compound `NC(=O)C(=O)C(Cc1ccccc1)NC(=O)c1cccnc1-n1cc(CCN2CCOCC2)c(-c2ccc(F)cc2)n1` (centres unmarked) [Example 165, N-[3-Amino-2,3-dioxo-1-(phenylmethyl)propyl]-2-[3-(4-fluorophenyl)-4-(2-morpholin-4-ylethyl)-1H-pyrazol-1-yl]pyridine-3-carboxamide], the Ki in test [1] fell in the range of 40 to 100 nM. In test [2], the “Sel cat. S (Ki(cathepsin S)/Ki(calpain) ratio)” value is on record as “++ (Ki(cathepsin S)/Ki(calpain) ratio of ≧100)”.

For the compound `Cl.NC(=O)C(=O)C(Cc1ccccc1)NC(=O)c1cccnc1-n1ccc(-c2cccc(CN3CCOCC3)c2)n1` (centres unmarked) [Example 52, N-(3-Amino-1-benzyl-2,3-dioxopropyl)-2-{3-[3-(morpholin-4-ylmethyl)phenyl]-1H-pyrazol-1-yl}nicotinamide hydrochloride], in test [1], the Ki is 40 to 100 nM. Besides, the “Sel cat. S (Ki(cathepsin S)/Ki(calpain) ratio)” value in test [2] is listed as “++ (Ki(cathepsin S)/Ki(calpain) ratio of ≧100)”.

Take `CCCCC(NC(=O)c1cccnc1-n1ccc(-c2ccccc2)n1)C(=O)C(N)=O` (centres unmarked) [Example 6, N-{1-[Amino(oxo)acetyl]pentyl}-2-(3-phenyl-1H-pyrazol-1-yl)nicotinamide]: in test [1], the Ki is at most 40 nM. In test [2], the “Sel cat. S (Ki(cathepsin S)/Ki(calpain) ratio)” value is reported as “+ (50≦Ki(cathepsin S)/Ki(calpain)<100)”.

For `NC(=O)C(=O)C(Cc1ccccc1)NC(=O)c1cccnc1-n1cnc(-c2ccc(N3CCOCC3)cc2)c1` (centres unmarked) [Example 14, N-(3-Amino-1-benzyl-2,3-dioxopropyl)-2-[4-(4-morpholin-4-ylphenyl)-1H-imidazol-1-yl]nicotinamide], the Ki in test [1] was in the range of 40 to 100 nM. In addition, in test [2], the “Sel cat. S (Ki(cathepsin S)/Ki(calpain) ratio)” value is listed as “++ (Ki(cathepsin S)/Ki(calpain) ratio of ≧100)”.

Turning to `NC(=O)C(=O)C(Cc1ccccc1)NC(=O)c1cccnc1-n1cc(CN2CCOCC2)c(-c2cccc(C(F)(F)F)c2)n1` (centres unmarked) [Example 177, N-[3-Amino-2,3-dioxo-1-(phenylmethyl)propyl]-2-{4-(morpholin-4-ylmethyl)-3-[3-(trifluoromethyl)phenyl]-1H-pyrazol-1-yl}pyridine-3-carboxamide], the Ki in test [1] is 40 to 100 nM. In addition, the “Sel cat. S (Ki(cathepsin S)/Ki(calpain) ratio)” value in test [2] is recorded as “++ (Ki(cathepsin S)/Ki(calpain) ratio of ≧100)”.

Take `CCCCC(NC(=O)c1cccnc1-n1ccc(-c2ccc(CN3CCOCC3)cc2)n1)C(=O)C(N)=O` (centres unmarked) [Example 45, N-{1-[Amino(oxo)acetyl]pentyl}-2-{3-[4-(morpholin-4-ylmethyl)phenyl]-1H-pyrazol-1-yl}nicotinamide]: the Ki in test [1] was at most 40 nM. Also, the “Sel cat. S (Ki(cathepsin S)/Ki(calpain) ratio)” value in test [2] is “+ (50≦Ki(cathepsin S)/Ki(calpain)<100)”.

With `NC(=O)C(=O)C(Cc1ccccc1)NC(=O)c1cccnc1-n1ccc(-c2ccc(-n3ccnc3)cc2)n1` (centres unmarked) [Example 101, N-[3-Amino-2,3-dioxo-1-(phenylmethyl)propyl]-2-{3-[4-(1H-imidazol-1-yl)phenyl]-1H-pyrazol-1-yl}pyridine-3-carboxamide], the Ki in test [1] was at most 40 nM. The “Sel cat. S (Ki(cathepsin S)/Ki(calpain) ratio)” value in test [2] is “++ (Ki(cathepsin S)/Ki(calpain) ratio of ≧100)”.

As for `NC(=O)C(=O)C(Cc1ccccc1)NC(=O)c1cccnc1-n1cc(CN2CCCC2)c(-c2cccc(C(F)(F)F)c2)n1` (centres unmarked) [Example 178, N-[3-Amino-2,3-dioxo-1-(phenylmethyl)propyl]-2-{4-(pyrrolidin-1-ylmethyl)-3-[3-(trifluoromethyl)phenyl]-1H-pyrazol-1-yl}pyridine-3-carboxamide], the Ki in test [1] is 40 to 100 nM. In addition, the “Sel cat. S (Ki(cathepsin S)/Ki(calpain) ratio)” value in test [2] was “++ (Ki(cathepsin S)/Ki(calpain) ratio of ≧100)”.

Turning to `CCCCC(NC(=O)c1cccnc1-n1ccc(-c2ccc(N(CC)CC)cc2)n1)C(=O)C(N)=O` (centres unmarked) [Example 47, N-{1-[Amino(oxo)acetyl]pentyl}-2-{3-[4-(diethylamino)phenyl]-1H-pyrazol-1-yl}nicotinamide], the Ki in test [1] is at most 40 nM. For the same compound, in test [2], the “Sel cat. S (Ki(cathepsin S)/Ki(calpain) ratio)” value is recorded as “++ (Ki(cathepsin S)/Ki(calpain) ratio of ≧100)”.

Turning to `CCN(CC)c1ccc(-c2ccn(-c3ncccc3C(=O)NC(Cc3ccccc3)C(=O)C(N)=O)n2)cc1` (centres unmarked) [Example 42, N-(3-Amino-1-benzyl-2,3-dioxopropyl)-2-{3-[4-(diethylamino)phenyl]-1H-pyrazol-1-yl}nicotinamide], the Ki in test [1] is at most 40 nM. Also, the “Sel cat. S (Ki(cathepsin S)/Ki(calpain) ratio)” value in test [2] is listed as “++ (Ki(cathepsin S)/Ki(calpain) ratio of ≧100)”.

As to `CCN(CC)Cc1ccc(-c2ccn(-c3ncccc3C(=O)NC(Cc3ccccc3)C(=O)C(N)=O)n2)cc1.Cl` (centres unmarked) [Example 43, N-(3-Amino-1-benzyl-2,3-dioxopropyl)-2-(3-{4-[(diethylamino)methyl]phenyl}-1H-pyrazol-1-yl)nicotinamide hydrochloride], the Ki in test [1] was 40 to 100 nM. Further, the “Sel cat. S (Ki(cathepsin S)/Ki(calpain) ratio)” value in test [2] is reported as “++ (Ki(cathepsin S)/Ki(calpain) ratio of ≧100)”.

As for `NC(=O)C(=O)C(Cc1ccccc1)NC(=O)c1cccnc1-n1ccc(-c2ccc(CN3CCOCC3)cc2)n1` (centres unmarked) [Example 46, N-(3-Amino-1-benzyl-2,3-dioxopropyl)-2-{3-[4-(morpholin-4-ylmethyl)phenyl]-1H-pyrazol-1-yl}nicotinamide], the Ki in test [1] fell in the range of 40 to 100 nM. The “Sel cat. S (Ki(cathepsin S)/Ki(calpain) ratio)” value in test [2] is on record as “++ (Ki(cathepsin S)/Ki(calpain) ratio of ≧100)”.
